Assay results published in PMC8819291, “Adaptively evolved human oral actinomyces‐sourced defensins show therapeutic potential” (EMBO Molecular Medicine, 2021).
Where a SMILES comes first, the peptide text is derived from it. Bridges are numbered along the chain shown (N, C = ends).

Test: SPR binding of UMP to immobilized AMSIN (Biacore T100)
Conditions: read-out: Binding affinity of AMSIN to UMP (K D); AMSIN immobilized on CM5, UMP 100–3.125 μM in PBS-T pH 7.5, 25°C; 1:1 Langmuir model
Protocol: Surface plasmon resonance (SPR) analysis was performed on a Biacore T100 instrument with a CM‐5 sensor chip (GE Healthcare Life Sciences, USA) at 25°C. An amide coupling chemistry strategy was used to immobilize AMSIN on the chip surface. […] Non‐reacted carboxylic groups on the sensor chip surface were blocked by ethanolamine‐HCl (1 M, pH 8.5) for 420 s at a flow rate of 10 μl/min. The final immobilization level was 1,778 RUs. For detecting binding, the analyte UMP was serially diluted twofold with the running buffer PBS‐T (PBS buffer containing 0.05% Tween 20, pH 7.5) at final concentrations of 100–3.125 μM. Then, they were used to flow over the chip surface at a flow rate of 30 μl/min for 60 s. Dissociation was monitored for 120 s by injecting the running buffer suddenly after samples at a flow rate of 30 μl/min for complete removal of specifically and non‐specifically bound biological material from the surface. Responses were measured in RUs as the difference between active and reference channels. The binding curve was fitted with the software BIAevaluation v2.0.1 using 1:1 Langmuir binding model.

## CC[C@H](C)[C@@H]1NC(=O)[C@H](CCCCN)NC(=O)CNC(=O)[C@H](CCCNC(=N)N)NC(=O)[C@@H]2CSSC[C@H](NC(=O)CNC(=O)[C@H](Cc3ccccc3)NC(=O)CN)C(=O)N3CCC[C@H]3C(=O)N[C@@H](Cc3c[nH]c4ccccc34)C(=O)N[C@@H](CC(N)=O)C(=O)N[C@@H](C)C(=O)N[C@@H](Cc3ccc(O)cc3)C(=O)N[C@@H](CCC(=O)O)C(=O)N[C@H]3CSSC[C@H](NC(=O)[C@H]([C@@H](C)O)NC(=O)[C@H](CCC(N)=O)NC(=O)[C@H](CCCNC(=N)N)NC1=O)C(=O)N[C@@H](Cc1c[nH]cn1)C(=O)N[C@H](C(=O)N[C@@H](Cc1ccc(O)cc1)C(=O)O)CSSC[C@H](NC(=O)[C@H](Cc1c[nH]cn1)NC(=O)[C@H](CCCNC(=N)N)NC(=O)[C@H](CC(=O)O)NC3=O)C(=O)N[C@@H](C(C)C)C(=O)N[C@@H](CO)C(=O)N[C@@H](CCCCN)C(=O)NCC(=O)N[C@@H](Cc1ccc(O)cc1)C(=O)N[C@@H]([C@@H](C)O)C(=O)NCC(=O)NCC(=O)N[C@@H](CC(N)=O)C(=O)N2 [AMSIN] (H-GFGCPWNAYECDRHCVSKGYTGGNCRGKIRQTCHCY-OH; disulfide 4-25, 11-33, 15-35; N-terminus and C-terminus assumed)
  Kd: 24 µM
